Source: patent publication US7659289B2, “Hydroxyethylene-based β-secretase inhibitors and use thereof” (CoMentis, Inc., priority 2004, dated 2010)

Experiments:
[1] = molecular target: memapsin 2 (Homo sapiens, UniProt P56817); test: Inhibition of memapsin 2 beta-secretase activity toward fluorogenic substrate FS-2; assay type: biochemical; details: pH 4, 37° C., 20 minutes pre-incubation, fluorogenic substrate FS-2, tight-binding model; read-out: M2 Ki
Experimental: Potency of compounds were determined by measurement of their inhibition of memapsin 2 activity toward a fluorescent substrate. […] Briefly, assays were performed at pH 4, 37° C., by pre-incubation of memapsin 2 enzyme with compound for 20 minutes. Activity measure was initiated by addition of a fluorogenic substrate FS-2 (Bachem Americas, Torrance, Calif.). Fluorescent signal increase over time was measured as a rate of hydrolysis of the peptide substrate.

[2] = molecular target: Cathepsin D (Homo sapiens, UniProt P07339); test: Inhibition of cathepsin D activity (MALDI-TOF, substrate peptide […]); assay type: biochemical; details: pH 4.1, 37 degrees C., read-out: Cath D Ki
Sequence of Cathepsin D (P07339 65-412, species assumed): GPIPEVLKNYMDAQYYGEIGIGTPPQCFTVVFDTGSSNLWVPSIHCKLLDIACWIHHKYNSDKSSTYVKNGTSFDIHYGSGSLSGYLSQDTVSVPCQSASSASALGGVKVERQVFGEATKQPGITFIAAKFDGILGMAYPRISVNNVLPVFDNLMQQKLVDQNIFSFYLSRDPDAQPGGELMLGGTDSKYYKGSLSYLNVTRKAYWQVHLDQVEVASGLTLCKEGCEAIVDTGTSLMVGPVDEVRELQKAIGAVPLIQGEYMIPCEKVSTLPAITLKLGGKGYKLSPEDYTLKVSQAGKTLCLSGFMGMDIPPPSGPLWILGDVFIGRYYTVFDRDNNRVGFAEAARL
Experimental: After equilibration at 37 degrees C., the reactions were initiated by the addition of an aliquot of memapsin 2. Aliquots were removed at time intervals, and combined with an equal volume of MALDI-TOF matrix (α-hydroxycinnamic acid in acetone, 20 mg/ml) and immediately spotted in duplicate onto a stainless-steel MALDI sample plate. MALDI-TOF mass spectrometry was performed on a PE Biosystems Voyager DE instrument at the Molecular Biology Resource Center on campus. The instrument was operated at 25,000 accelerating volts in positive mode with a 150 ns delay. Ions with a mass-to-charge ratio (m/z) were detected in the range of 650-2000 atomic mass units. Data was analyzed by the Voyager Data Explorer module to obtain ion intensity data for mass species of substrates and corresponding products in a given mixture. Relative product formation was calculated as the ratio of signal intensity of the product to the sum of signal intensities of both product and the corresponding substrate. Relative product formed per unit time was obtained from non-linear regression analysis of the data representing the initial 15% formation of product using the model: 1−e^−kT,
where k is the relative hydrolytic rate constant and T is time in seconds. Initial rates were expressed relative to uninhibited controls and fit to a tight-binding model of competitive inhibition as above.

[3] = tested on: Aβ production; test: Cellular Aβ IC50 determination (Aβ40 sandwich ELISA); assay type: cell-based; details: Cricetulus griseus; Aβ40, Chinese hamster ovary cells over-expressing human APP695 with London and Swedish mutations, 24 h incubation
Experimental: The potency of compounds against memapsin 2 activity was determined in a cellular assay of Aβ production. […] Chinese hamster ovary cells that over-express human APP695 with the London and Swedish mutations were seeded in multi-well plates at 10% confluency. Compounds were dissolved in DMSO to concentrations near 1 mM, and diluted into culture media to a final concentration near 4 μM (final 0.4% DMSO). Compounds were diluted serially and applied to cells in multi-well plates 48 h after seeding. Incubation was continued in 5% CO2 at 37 degrees C. for 24 h. Aliquots were removed and assayed for Aβ40 content using a sandwich ELISA (BioSource International). Amount of Aβ40 over the range of concentration of compounds, relative to control incubations, were fit to a 4-parameter IC50 model.

Sequence of memapsin 2 (P56817 46-501): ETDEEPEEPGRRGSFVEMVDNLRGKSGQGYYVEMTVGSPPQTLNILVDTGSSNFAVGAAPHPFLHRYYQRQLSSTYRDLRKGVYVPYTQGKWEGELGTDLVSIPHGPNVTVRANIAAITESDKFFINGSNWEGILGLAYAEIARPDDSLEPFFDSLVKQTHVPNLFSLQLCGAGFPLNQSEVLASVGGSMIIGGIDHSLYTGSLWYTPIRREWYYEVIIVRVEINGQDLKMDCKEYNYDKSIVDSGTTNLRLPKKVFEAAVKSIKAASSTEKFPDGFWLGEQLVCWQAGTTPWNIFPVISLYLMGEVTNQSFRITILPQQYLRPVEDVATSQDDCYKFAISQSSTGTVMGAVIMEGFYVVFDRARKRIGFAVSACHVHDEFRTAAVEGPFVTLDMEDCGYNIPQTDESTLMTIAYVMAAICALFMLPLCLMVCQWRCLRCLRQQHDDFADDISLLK

| SMILES | Ki [1] [nM] | Ki [2] [nM] | IC50 [3] [nM] |
| --- | --- | --- | --- |
| Cc1csc(C[C@H](C)C(=O)N[C@@H](CNS(C)(=O)=O)C(=O)N[C@@H](CC(C)C)[C@@H](O)C[C@@H](C)C(=O)N[C@H](C(=O)NCC(C)C)C(C)C)n1 [(2R,4S,5S)-4-hdroxy-N-((S)-1-(isobutylamino)-3-methyl-1-oxobutan-2-yl)-2,7-dimethyl-5-((S)-2-((S)-2-methyl-3-(4-methylthiazol-2-yl)propanamido)-3-(methylsulfonamido)propanamido)octanamide] | < 100 | < 100 | < 6000 |
| COC(=O)NC[C@H](NC(=O)[C@@H](C)Cc1nc(C)cs1)C(=O)N[C@@H](CC(C)C)[C@@H](O)C[C@@H](C)C(=O)N[C@H](C(=O)NCC(C)C)C(C)C [methyl (S)-3-((4S,5S,7R)-5-hydroxy-8-((S)-1-(isobutylamino)-3-methyl-1-oxobutan-2-ylamino)-2,7-dimethyl-8-oxooctan-4-ylamino)-2-((S)-2-methyl-3-(4-methylthiazol-2-yl)propanamido)-3-oxopropylcarbamate] | < 100 | < 100 | < 6000 |
| CC[C@@H](Cn1nc(C)cc1C)C(=O)N[C@@H](CNC(=O)OC(C)(C)C)C(=O)N[C@@H](CC(C)C)[C@@H](O)C[C@@H](C)C(=O)N[C@H](C(=O)NCC(C)C)C(C)C [tert-butyl (S)-2-((S)-2-((3,5-dimethyl-1H-pyrazol-1-yl)methyl)butanamido)-3-((4S,5S,7R)-5-hydroxy-8-((S)-1-(isobutylamino)-3-methyl-1-oxobutan-2-ylamino)-2,7-dimethyl-8-oxooctan-4-ylamino)-3-oxopropylcarbamate] | < 100 | < 100 | < 6000 |
| Cc1csc(C[C@H](C)C(=O)N[C@@H](CN)C(=O)N[C@@H](CC(C)C)[C@@H](O)C[C@@H](C)C(=O)N[C@H](C(=O)NCC(C)C)C(C)C)n1 [(2R,4S,5S)-5-((S)-3-amino-2-((S)-2-methyl-3-(4-methylthiazol-2-yl)propanamido)propanamido)-4-hydroxy-N-((S)-1-(isobutylamino)-3-methyl-1-oxobutan-2-yl)-2,7-dimethyloctanamide] | 100 to 600 | 100 to 600 | 6000 to 100000 |
| Cc1cc(C)n(C[C@H](C)C(=O)N[C@@H](CNC(=O)O[C@H]2CCOC2)C(=O)N[C@@H](CC(C)C)[C@@H](O)C[C@@H](C)C(=O)N[C@H](C(=O)NCC(C)C)C(C)C)n1 [(S)-tetrahydrofuran-3-yl (S)-2-((S)-3-(3,5-dimethyl-1H-pyrazol-1-yl)-2-methylpropanamido)-3-((4S,5S,7R)-5-hydroxy-8-((S)-1-(isobutylamino)-3-methyl-1-oxobutan-2-ylamino)-2,7-dimethyl-8-oxooctan-4-ylamino)-3-oxopropylcarbamate] | < 100 | < 100 | 6000 to 100000 |
| Cc1cc(C)n(CC(N)C(=O)N[C@@H](CNC(=O)OC(C)(C)C)C(=O)N[C@@H](CC(C)C)[C@@H](O)C[C@@H](C)C(=O)N[C@H](C(=O)NCC(C)C)C(C)C)n1 (stereo partly drawn) [tert-butyl (2S)-2-(2-amino-3-(3,5-dimethyl-1H-pyrazol-1-yl)propanamido)-3-((4S,5S,7R)-5-hydroxy-8-((S)-1-(isobutylamino)-3-methyl-1-oxobutan-2-ylamino)-2,7-dimethyl-8-oxooctan-4-ylamino)-3-oxopropylcarbamate] | 100 to 600 | 100 to 600 | > 100000 |
| Cc1csc(C[C@H](C)C(=O)N[C@@H](CNC(=O)OC(C)(C)C)C(=O)N[C@@H](CC(C)C)[C@@H](O)C[C@@H](C)C(=O)N[C@H](C(=O)NCc2ccncc2)C(C)C)n1 [tert-butyl (S)-3-(4S,5S,7R)-hydromxy-2,7-dimethyl-8-((S)-3-methyl-1-oxo-1-(pyridin-4-ylmethylamino)butan-2-ylamino)-8-oxooctan-4-ylamino)-2-((S)-2-methyl-3-(4-methylthiazol-2-yl)propanamido)-3-oxopropylcarbamate] | < 100 | 100 to 600 | < 6000 |
